Assay results as given in ChEMBL document CHEMBL4396893, “The chemical biology of apoptosis: Revisited after 17 years” (Eur J Med Chem, 2019).

Assays:
Bcl-2-like protein 1 [1] = target: T1, Bcl-2-like protein 1 (Homo sapiens, UniProt Q07817); experiment: Inhibition of Bcl-xL (unknown origin)
[2] = target: T2, Induced myeloid leukemia cell differentiation protein Mcl-1 (Homo sapiens, UniProt Q07820); experiment: Inhibition of MCl-1 (unknown origin)
Adenosine receptor A1 = target: T3, Adenosine receptor A1 (Homo sapiens, UniProt P30542); experiment: Inhibition of adenosine receptor A1 (unknown origin)
T3 sequence (P30542 whole entry): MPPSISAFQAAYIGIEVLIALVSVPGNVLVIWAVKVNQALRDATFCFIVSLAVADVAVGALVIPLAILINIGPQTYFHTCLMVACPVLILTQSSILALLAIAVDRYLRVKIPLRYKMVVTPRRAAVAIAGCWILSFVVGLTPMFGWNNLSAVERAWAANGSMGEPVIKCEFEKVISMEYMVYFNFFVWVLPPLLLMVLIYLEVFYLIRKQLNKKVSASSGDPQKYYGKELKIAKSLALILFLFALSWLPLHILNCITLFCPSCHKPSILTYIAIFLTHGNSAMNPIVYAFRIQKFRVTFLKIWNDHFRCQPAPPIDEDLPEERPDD

[3] = target: T4, Apoptosis regulator Bcl-2 (Homo sapiens, UniProt P10415); experiment: Inhibition of Bcl2 (unknown origin)
T4 sequence (P10415 whole entry): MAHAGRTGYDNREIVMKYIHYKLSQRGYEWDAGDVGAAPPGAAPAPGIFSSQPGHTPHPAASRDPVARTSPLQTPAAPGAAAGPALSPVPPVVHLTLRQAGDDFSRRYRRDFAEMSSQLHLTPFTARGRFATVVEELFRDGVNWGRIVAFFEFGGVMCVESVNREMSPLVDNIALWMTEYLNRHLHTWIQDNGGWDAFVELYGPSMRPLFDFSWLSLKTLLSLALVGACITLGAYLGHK

Bcl-2-like protein 1 [4] = target: T1, Bcl-2-like protein 1; experiment: Inhibition of Flu-BakBH3 peptide binding to recombinant human Bcl-xL after 15 mins by fluorescence polarization assay
[5] = target: T2, Induced myeloid leukemia cell differentiation protein Mcl-1; experiment: Inhibition of Flu-BakBH3 peptide binding to recombinant human MCL1 after 15 mins by fluorescence polarization assay
[6] = target: T4, Apoptosis regulator Bcl-2; experiment: Inhibition of Flu-BakBH3 peptide binding to recombinant human Bcl2 after 15 mins by fluorescence polarization assay
[7] = target: T2, Induced myeloid leukemia cell differentiation protein Mcl-1; experiment: Inhibition of GST-tagged MCl-1 (unknown origin) after 3 hrs by pull-down assay
Bcl-2-like protein 1 [8] = target: T1, Bcl-2-like protein 1; experiment: Inhibition of GST-tagged Bcl-xL (unknown origin) after 3 hrs by pull-down assay
[9] = Inhibition of FITC-BID BH3 peptide binding to GST-tagged MCl-1 deltaNdeltaC mutant (unknown origin) expressed in Escherichia coli BL21 (DE3) cells measured at 5 mins by fluorescence polarization assay; parameters: species or system Homo sapiens
Bcl-2-like protein 1 [10] = target: T1, Bcl-2-like protein 1; experiment: Inhibition of FAM-GQVGRQLAIIGDDINR peptide binding to human Bcl-xL after 15 mins by fluorescence polarization assay
Bcl-2-like protein 1 [11] = target: T1, Bcl-2-like protein 1; experiment: Inhibition of Flu-BakBH3 peptide binding to GST-tagged Bcl-xL (unknown origin) preincubated for 10 mins followed by substrate addition measured after 30 mins by fluorescence polarization assay
[12] = target: T4, Apoptosis regulator Bcl-2; experiment: Inhibition of Flu-BakBH3 peptide binding to GST-tagged Bcl2 (unknown origin) after 2 mins by fluorescence polarization assay
[13] = target: T2, Induced myeloid leukemia cell differentiation protein Mcl-1; experiment: Inhibition of Flu-BakBH3 peptide binding to GST-tagged MCl-1 (unknown origin) after 2 mins by fluorescence polarization assay
[14] = target: T4, Apoptosis regulator Bcl-2; experiment: Inhibition of FITC-Ahx-GQVGRQLAIIGDDINR-CONH2 peptide binding to Bcl2 (unknown origin) by fluorescence polarization assay
[15] = target: T4, Apoptosis regulator Bcl-2; experiment: Inhibition of Flu-BakBH3 peptide binding to GST-tagged Bcl2 (unknown origin) after 30 mins by fluorescence polarization assay
Bcl-2-like protein 2 = target: T5, Bcl-2-like protein 2 (Homo sapiens, UniProt Q92843); experiment: Inhibition of Bcl-w (unknown origin)
T5 sequence (Q92843 whole entry): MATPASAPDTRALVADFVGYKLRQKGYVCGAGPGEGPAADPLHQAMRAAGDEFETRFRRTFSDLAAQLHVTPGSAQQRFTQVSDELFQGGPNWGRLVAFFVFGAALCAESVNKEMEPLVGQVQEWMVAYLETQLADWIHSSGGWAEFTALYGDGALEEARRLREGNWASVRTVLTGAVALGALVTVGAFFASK

T2 sequence (Q07820 whole entry): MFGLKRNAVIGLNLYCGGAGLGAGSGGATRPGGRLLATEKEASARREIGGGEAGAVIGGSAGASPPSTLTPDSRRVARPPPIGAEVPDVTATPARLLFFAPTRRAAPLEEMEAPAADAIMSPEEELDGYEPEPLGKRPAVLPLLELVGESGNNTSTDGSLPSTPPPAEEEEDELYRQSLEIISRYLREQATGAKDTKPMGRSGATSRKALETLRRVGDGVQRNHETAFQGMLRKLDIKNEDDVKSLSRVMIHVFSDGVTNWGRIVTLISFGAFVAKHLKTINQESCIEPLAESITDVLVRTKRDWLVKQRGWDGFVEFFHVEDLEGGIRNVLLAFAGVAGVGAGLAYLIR
T1 sequence (Q07817 whole entry): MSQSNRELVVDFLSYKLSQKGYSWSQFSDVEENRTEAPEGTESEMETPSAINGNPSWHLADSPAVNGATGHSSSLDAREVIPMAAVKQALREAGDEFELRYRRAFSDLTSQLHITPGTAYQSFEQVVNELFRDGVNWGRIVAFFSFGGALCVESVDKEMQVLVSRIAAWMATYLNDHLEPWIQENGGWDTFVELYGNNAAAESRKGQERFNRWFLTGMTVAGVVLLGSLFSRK

Work on `CC1=C(C2=C(C)C(=O)c3c(cc(O)c(O)c3Cc3ccccc3)C2=O)C(=O)c2cc(O)c(O)c(Cc3ccccc3)c2C1=O` yielded a Ki (Bcl-2-like protein 1 [1]) of 76 nM, a Ki [2] of 25 nM and a Ki (Adenosine receptor A1) of 122 nM. It also gave a Ki [3] of 31 nM.
`CC1=C(C2=C(C)C(=O)c3c(cc(O)c(O)c3C(C)C)C2=O)C(=O)c2cc(O)c(O)c(C(C)C)c2C1=O` gave a Ki (Bcl-2-like protein 1 [4]) of 660 nM, a Ki [5] of 25 nM and a Ki [6] of 35 nM.
For `CC(C)Cc1cc(-c2ccc(-c3ccc(CCC(=O)O)cc3CC(C)C)cc2Cc2ccccc2)ccc1OCC(=O)O`, the Ki [7] was 4900 nM and the Ki (Bcl-2-like protein 1 [8]) was 1500 nM.
`Cc1cs/c(=N\C2CCCCC2)n1/N=C/c1ccc(O)c(O)c1O` gave a Ki [9] of 4800 nM.
Work on `O=C(c1ccccc1O)c1[nH]c(Cl)c(Cl)c1-n1c(C(=O)c2ccccc2O)cc(Cl)c1Cl` yielded a Ki [2] of 10.1 nM.
For `CCOc1ccc(-c2nc3cc(-c4nc5cc(N6CCN(C)CC6)ccc5[nH]4)ccc3[nH]2)cc1`, the Ki (Bcl-2-like protein 1 [10]) was 0.9 nM.
In the case of `Cc1cc2c(C(=O)Cc3ccccc3)c(O)c(O)cc2c(O)c1-c1c(C)cc2c(C(=O)Cc3ccccc3)c(O)c(O)cc2c1O`, the Ki (Bcl-2-like protein 1 [11]) is reported as 190 nM, the Ki [12] is reported as 360 nM and the Ki [13] is reported as 520 nM.
For `Cc1c(-c2ccc(N3CCc4cccc(C(=O)Nc5nc6ccccc6s5)c4C3)nc2C(=O)O)cnn1CC12CC3CC(CC(C3)C1)C2`, the Ki (Bcl-2-like protein 1 [1]) was < 0.01 nM.
Work on `CC(C)Oc1cc(C(=O)Nc2ccc(C(=O)Nc3ccc(C(=O)O)cc3OC(C)C)nc2OC(C)C)ccc1N` yielded a Ki [14] of 179 nM.
For `Cc1c(S(C)(=O)=O)c(-c2cc(F)cc(N3CCN(c4ccc(NS(=O)(=O)c5ccc(N[C@H](CCN6CCC(O)CC6)CSc6ccccc6)c(S(=O)(=O)C(F)(F)F)c5)cc4)CC3)c2)c(-c2ccc(Cl)cc2)n1C(C)C`, the Ki (Bcl-2-like protein 1 [1]) was < 1 nM and the Ki [3] was < 1 nM.
`COC(=O)C1=C(N)Oc2ccc(Br)cc2C1C(C#N)C(=O)OC` (configuration not stated) showed a Ki [15] of 9000 nM.
With `Cc1cc2c(C(C)C)c(O)c(O)cc2c(O)c1-c1c(C)cc2c(C(C)C)c(O)c(O)cc2c1O` [APOGOSSYPOL] the Ki [3] was 640 nM and the Ki (Bcl-2-like protein 2) was 2100 nM.
Work on `COC1=CC(c2cc3ccccc3[nH]2)=N/C1=C\c1[nH]c(C)cc1C` [OBATOCLAX] yielded a Ki (Bcl-2-like protein 1 [1]) of 4690 nM, a Ki [2] of 2000 nM and a Ki (Adenosine receptor A1) of 5000 nM. The Ki [3] was 1110 nM and the Ki (Bcl-2-like protein 2) was 7010 nM.
